Where two headings read alike, the source gives them in different places.
Legend:
[1] = system: K1 P. falciparum strain; assay: In vitro antiplasmodial evaluation (SYBR Green I fluorescence-based method); type: cell-based; settings: for SI (selectivity index = CC50/EC50): CC50 HepG2 / EC50 PfK1; for EC50: multi-resistant K1 P. falciparum strain, 72 h incubation, read-out: PfK1 EC50
Protocol: It was maintained in continuous culture as described previously by Trager and Jensen. […] Parasitemia was maintained daily at between 1 and 3%. The P. falciparum drug susceptibility test was carried out by comparing quantities of DNA in treated and control cultures of parasite in human erythrocytes according to an SYBR Green I fluorescence-based method using a 96-well fluorescence plate reader. […] Duplicate assays were performed for each sample. After incubation, plates were frozen at -20 °C for 24 h. […] Fifteen μL of each sample were transferred to 96-well flat bottom non-sterile black plates (Greiner Bio-one) already containing 15 μL of the SYBR Green I lysis buffer (2X SYBR Green I, 20 mM Tris base pH 7.5, 20 mM EDTA, 0.008% w/v saponin, 0.08% w/v Triton X-100).

[2] = In vitro cytotoxicity evaluation (MTT); type: cell-based; settings: human
Protocol: Triplicate assays were performed for each sample. Each plate-well was then microscope-examined for possible precipitate formation before the medium was aspirated from the wells. 100 μL of MTT (3-(4,5-dimethyl-2-thiazolyl)-2,5-diphenyl-2H-tetrazolium bromide) solution (0.5 mg/mL in medium without FBS) were then added to each well. […] After this time, the MTT solution was removed and DMSO (100 μL) was added to dissolve the resulting blue formazan crystals. Plates were shaken vigorously (700 rpm) for 10 min. The absorbance was measured at 570 nm with 630 nm as reference wavelength using a BIO-TEK ELx808 Absorbance Microplate Reader (LabX, Midland, ON, Canada). DMSO was used as blank and doxorubicin (purchased from Sigma Aldrich) as positive control. Cell viability was calculated as percentage of control (cells incubated without compound). […] CC50 values represent the mean value calculated from three independent experiments.

[3] = Solubility of the tested molecule in the culture medium; type: physicochemical; settings: culture medium of the cytotoxicity test
Protocol: HepG2 cell line was maintained at 37 °C, 5% CO2, at 90% humidity in […] supplemented with 10% fetal bovine serum, 1% L-glutamine (200 mM) and penicillin (100 U/mL)/streptomycin (100 µg/mL) (complete RPMI medium). The cytotoxicity of the tested molecules on the HepG2 (hepatocarcinoma cell line purchased from ATCC, ref HB-8065) cell line was assessed according to the method of Mosmann with slight modifications. Briefly, 5.10^3 cells in 100 µL of complete medium were inoculated into each well of 96-well plates and incubated at 37 °C in humidified 5% CO2. After 24 h incubation, 100 μL of medium with various product concentrations dissolved in DMSO (final concentration less than 0.5% v/v) were added and the plates were incubated for 72 h at 37 °C. Triplicate assays were performed for each sample. Each plate-well was then microscope-examined for possible precipitate formation before the medium was aspirated from the wells. 100 μL of MTT (3-(4,5-dimethyl-2-thiazolyl)-2,5-diphenyl-2H-tetrazolium bromide) solution (0.5 mg/mL in medium without FBS) were then added to each well. Cells were incubated for 2 h at 37 °C. After this time, the MTT solution was removed and DMSO (100 μL) was added to dissolve the resulting blue formazan crystals. Plates were shaken vigorously (700 rpm) for 10 min. The absorbance was measured at 570 nm with 630 nm as reference wavelength using a BIO-TEK ELx808 Absorbance Microplate Reader (LabX, Midland, ON, Canada). DMSO was used as blank and doxorubicin (purchased from Sigma Aldrich) as positive control. Cell viability was calculated as percentage of control (cells incubated without compound). […] CC50 values represent the mean value calculated from three independent experiments.

[4] = system: K1 P. falciparum strain; settings: previously described compounds; ref 9 (A), 10 (B), 11 (C), 12 (series D); read-out: Antiplasmodial activity EC50 P. falciparum K1; cited from earlier work
[5] = system: HepG2 cell line; set-up: method as in earlier work; settings: previously described compounds; ref 9 (A), 10 (B), 11 (C), 12 (series D); read-out: Cytotoxicity CC50 HepG2; cited from earlier work
[6] = system: W2 P. falciparum; set-up: method as in PMID 21741131; settings: W2 strain; cited from earlier work
[7] = Plasmodium falciparum, K1, 72 h

Row | Compound | SI (selectivity index = CC50/EC50) [1] | EC50 [1, 7] [µM] | CC50 at 72 h [2] [µM] | solubility (in words) [3] | melting point [°C] | EC50 [4] [µM] | CC50 [5] [µM] | activity against W2 P. falciparum (in words) [6] | EC50 [1] [µM] | IC50 ([1]; Plasmodium falciparum, K1, Figures 2 and 3, read-out: IC50 P. falci. K1) [µM]
1 | O=C(Nc1nc(C(Cl)(Cl)Cl)nc2ccccc12)c1ccccc1[N+](=O)[O-] [Molecule 8, 2-Nitro-N-(2-Trichloromethylquinazolin-4-yl)benzamide] | >5.2 | 3 | > 15.6 | lack of solubility | 257 | – | – | – | – | –
2 | Fc1ccc(-c2nc(C(Cl)(Cl)Cl)nc3ccccc23)cc1 [A, 4-(4′-fluorophenyl)-2-trichloromethylquinazoline] | – | – | – | – | – | 2.5 | > 125 | – | – | –
3 | O=C(Nc1nc(C(Cl)(Cl)Cl)nc2ccccc12)c1ccccc1F [Molecule 11, 2-Fluoro-N-(2-Trichloromethylquinazolin-4-yl)benzamide] | – | 5.23 | > 15.6 | lack of solubility | – | – | – | – | – | –
4 | Oc1nc(C(Cl)(Cl)Cl)nc2ccccc12 [2-(trichloromethyl)quinazolin-4-ol] | – | – | – | – | – | – | – | not active | – | –
5 | CCC(=O)Nc1nc(C(Cl)(Cl)Cl)nc2ccccc12 [Molecule 21, N-(2-Trichloromethylquinazolin-4-yl)propionamide] | >12.8 | 4.9 | > 62.5 | lack of solubility | 171 | – | – | – | – | –
6 | ClCCCOc1nc(C(Cl)(Cl)Cl)nc2ccccc12 [Molecule 37, 4-(3-Chloropropoxy)-2-Trichloromethylquinazoline] | 14.4 | 4.2 | 60.4 | – | 77 | – | – | – | – | –
7 | CC(=O)NCCOc1nc(C(Cl)(Cl)Cl)nc2ccccc12 [Molecule 42, N-{2-[(2-Trichloromethylquinazolin-4-yl)oxy]ethyl}acetamide] | >30 | 3.3 | > 99.7 | – | 135 | – | – | – | – | –
8 | CC(=O)Nc1nc(C(Cl)(Cl)Cl)nc2ccccc12 [Molecule 20, N-(2-Trichloromethylquinazolin-4-yl)acetamide] | – | > 10 | 31.2 | lack of solubility | 217 | – | – | – | – | –
9 | CCCOc1nc(C(Cl)(Cl)Cl)nc2ccccc12 [Molecule 28, 4-Propoxy-2-Trichloromethylquinazoline] | 15 | 3.5 | 54.8 | – | 39 | – | – | – | – | –
10 | O=[N+]([O-])c1ccc(COc2nc(C(Cl)(Cl)Cl)nc3ccccc23)cc1 [C] | – | – | – | – | – | 1.8 | 19.4 | – | – | –
11 | CCCCC(=O)Nc1nc(C(Cl)(Cl)Cl)nc2ccccc12 [Molecule 24, N-(2-Trichloromethylquinazolin-4-yl)pentanamide] | – | ≤ 2 | 42.3 | lack of solubility | 136 | – | – | – | 1.6 | –
12 | CCOc1nc(C(Cl)(Cl)Cl)nc2ccccc12 [Molecule 27, 4-Ethoxy-2-Trichloromethylquinazoline] | 10 | 4.7 | 47.1 | – | 73 | – | – | – | – | –
13 | O=C(Nc1nc(C(Cl)(Cl)Cl)nc2ccccc12)c1ccc([N+](=O)[O-])cc1 [Molecule 6, 4-Nitro-N-(2-Trichloromethylquinazolin-4-yl)benzamide] | 5.3 | 4.18 | 22.1 | – | 214 | – | – | – | – | –
14 | O=C(Nc1nc(C(Cl)(Cl)Cl)nc2ccccc12)C1CCCCC1 [Molecule 25, N-(2-Trichloromethylquinazolin-4-yl)cyclohexanecarboxamide] | >6.5 | 2.4 | > 15.6 | – | 214 | – | – | – | – | –
15 | CC(C)(C)C(=O)Nc1nc(C(Cl)(Cl)Cl)nc2ccccc12 [Molecule 23, N-(2-Trichloromethylquinazolin-4-yl)pivalamide] | 19.4 | 1.8 | 34.9 | – | 157 | – | – | – | – | –
16 | ClC(Cl)(Cl)c1nc(OCCBr)c2ccccc2n1 [Molecule 40, 4-(2-Bromoethoxy)-2-Trichloromethylquinazoline] | >28 | 2.2 | > 62.5 | – | 100 | – | – | – | – | –
17 | CCN(CC)CCOc1nc(C(Cl)(Cl)Cl)nc2ccccc12 [Molecule 41, N,N-Diethyl-2-[(2-Trichloromethylquinazolin-4-yl)oxy]ethanamine] | – | – | 32.3 | – | 137 | – | – | – | – | 0.9
18 | O=C(Nc1nc(C(Cl)(Cl)Cl)nc2ccccc12)c1ccccn1 [Molecule 17, N-(2-Trichloromethylquinazolin-4-yl)picolinamide] | >0.5 | 14.5 | > 7.8 | lack of solubility | 214 | – | – | – | – | –
19 | COc1nc(C(Cl)(Cl)Cl)nc2ccccc12 [Molecule 26, 4-Methoxy-2-Trichloromethylquinazoline] | 5.5 | 7.1 | 39.3 | – | 83 | – | – | – | – | –

Source: article PMC7504092, “Synthesis and Antiplasmodial Evaluation of 4-Carboxamido- and 4-Alkoxy-2-Trichloromethyl Quinazolines” (Molecules, 2020)
